Usually melting point stands for the temperature of the solid-liquid transition.

`N#Cc1cnn2cccc2c1NCC1CCCO1` (stereo not shown) [Compound 51k, 4-((tetrahydrofuran-2-yl)methylamino)pyrrolo[1,2-b]pyridazine-3-carbonitrile]: the melting point stood at 101.8 °C.

In turn, `N#Cc1cnn2cccc2c1NC1CCCC1` [Compound 52b, 4-(cyclopentylamino)pyrrolo[1,2-b]pyridazine-3-carbonitrile] returned a melting point of 102.9 °C.

Take `CC(C)(CNc1c(C#N)cnn2cccc12)N1CCOCC1` [Compound 49e, 4-(2-methyl-2-morpholinopropylamino)pyrrolo[1,2-b]pyridazine-3-carbonitrile]: the melting point was determined as 178.8 °C.

Regarding `NC(=O)c1cnn2cccc2c1Nc1ccccc1` [Compound 52f, 4-(phenylamino)pyrrolo[1,2-b]pyridazine-3-carboxamide], the melting point was determined as 247.2 °C.

Turning to `CN(C)C(CNc1c(C#N)cnn2cccc12)c1ccco1` (stereo not shown) [Compound 49h, 4-(2-(dimethylamino)-2-(furan-2-yl)ethylamino)pyrrolo[1,2-b]pyridazine-3-carbonitrile], the melting point is 106.9 °C.

`CC1CCCCC1Nc1c(C(=O)O)cnn2cccc12` (stereo not shown) [Compound 18e, 4-(2-methylcyclohexylamino)pyrrolo[1,2-b]pyridazine-3-carboxylic acid] gave a melting point of 195.1 °C.

For `C[C@H]1CCCC[C@H]1Nc1c(C(N)=O)cnn2cccc12` [Compound 18g, 4-((1R,2S)-2-methylcyclohexylamino)pyrrolo[1,2-b]pyridazine-3-carboxamide], the melting point is 158.6 °C.

`N#Cc1cnn2cccc2c1NC1(c2ccc(Cl)cc2Cl)CC1` [Compound 49k, 4-(1-(2,4-dichlorophenyl)cyclopropylamino)pyrrolo[1,2-b]pyridazine-3-carbonitrile]: the melting point worked out at 207.7 °C.

`NC(=O)c1cnn2cccc2c1NC1CCCCCC1` [Compound 52i, 4-(cycloheptylamino)pyrrolo[1,2-b]pyridazine-3-carboxamide] had a melting point of 279.2 °C.

Regarding `NC(=O)c1cnn2cccc2c1NCC1CCCO1` (stereo not shown) [Compound 51m, 4-((tetrahydrofuran-2-yl)methylamino)pyrrolo[1,2-b]pyridazine-3-carboxamide], the melting point was determined as 120 °C.

With `NC(=O)c1cnn2cccc2c1NC1CCC(O)CC1` (stereo not shown) [Compound 51i, 4-(4-hydroxycyclohexylamino)pyrrolo[1,2-b]pyridazine-3-carboxamide], the melting point stood at 192.2 °C.

In turn, `N#Cc1cnn2cccc2c1NC1CCCCCC1` [Compound 52h, 4-(cycloheptylamino)pyrrolo[1,2-b]pyridazine-3-carbonitrile] had a melting point of 108 °C.

For `C[C@@H]1CCCC[C@@H]1Nc1c(C(N)=O)cnn2cccc12` [Compound 18i, 4-((1S,2R)-2-methylcyclohexylamino)pyrrolo[1,2-b]pyridazine-3-carboxamide], the melting point amounted to 154.7 °C.

Consider `N#Cc1cnn2cccc2c1Nc1ccccc1` [Compound 52e, 4-(phenylamino)pyrrolo[1,2-b]pyridazine-3-carbonitrile], for which the melting point is 163.5 °C.

The compound `COc1ccccc1C(CNc1c(C#N)cnn2cccc12)N1CCOCC1` (stereo not shown) [Compound 50b, 4-(2-(2-methoxyphenyl)-2-morpholinoethylamino)pyrrolo[1,2-b]pyridazine-3-carbonitrile] showed a melting point of 156.9 °C.

On to `Cc1nc(C(CC(C)C)Nc2c(C#N)cnn3cccc23)sc1C` (stereo not shown) [Compound 49b, 4-(1-(4,5-Dimethylthiazol-2-yl)-3-methylbutylamino)pyrrolo[1,2-b]pyridazine-3-carbonitrile], for which the melting point was found to be 137.9 °C.

(Values after US20120149691A1, “Pyrrolo [1,2-b] Pyridazine Derivatives as Janus Kinase Inhibitors” (BioCryst Pharmaceuticals, Inc., priority 2009, published 2012).)
